Holding throughout (assay type): cell-based
Experiment [1] deals with variants of SARS-CoV-2 (B1.1.7, B.1.351, B.1.617.2, and B.1.617.1). The conditions noted are these: for prevention of infection of all clades: alone at their highest doses; for reduction of SARS-CoV-2 infection in all lineages: alone or in combination, lowest given concentration.
Experiment [2] concerns B.1.1.7 (α-variant). In words: SARS-CoV-2 inhibition assay in Vero E6 cells, B.1.1.7. The conditions noted are these: 0.99 μM.
The subject of experiment [3] is B.1.351 (β-variant). The experiment in a line: SARS-CoV-2 inhibition assay in Vero E6 cells, B.1.351. The conditions noted are these: 0.99 μM.
For experiment [4], the system named is B.1.617.2 (δ-variant). In words: SARS-CoV-2 inhibition assay in Vero E6 cells, B.1.617.2. The following applies: 0.99 μM.
Experiment [5] concerns B.1.617 (κ-variant). In words: SARS-CoV-2 inhibition assay in Vero E6 cells, B.1.617. The following applies: 0.99 μM.

As for `CC#CCn1c(N2CCC[C@@H](N)C2)nc2c1c(=O)n(Cc1nc(C)c3ccccc3n1)c(=O)n2C` [Linagliptin, linagliptin], in experiment [1], the “inhibitory effectiveness against all VOCs” value was “dose-dependent inhibitory effectiveness”, the “prevention of infection of all clades” value is listed as “entirely prevent the infection of all clades” and the “reduction of SARS-CoV-2 infection in all lineages” value is given as 6–10 folds.
Take `N[C@@H](CC(=O)N1CCn2c(nnc2C(F)(F)F)C1)Cc1cc(F)c(F)cc1F` [Sitagliptin, sitagliptin]: in experiment [2], the “effect on α-SARS-CoV-2 growth” value is recorded as “partially inhibit”. Besides, the “inhibition of viral growth among all variants” value in experiment [1] (1.98 μM) is reported as 6–7 folds. Besides, in experiment [1], the “prevention of infection of all clades” value is recorded as “entirely prevent the infection of all clades” and the “reduction of SARS-CoV-2 infection in all lineages” value was 6–10 folds. Besides, the “effect on β-SARS-CoV-2 growth” value in experiment [3] is recorded as “partially inhibit”. The “effect on δ-SARS-CoV-2 growth” value in experiment [4] is “unable to prevent even the partial growth”. In addition, in experiment [5], the “effect on κ-SARS-CoV-2 growth” value was “partially inhibit”.

Source of the values: article PMC10293653 (International Journal of Biological Macromolecules, 2023).
